Molecules are shown by their SMILES.

Common to all, as to conditions: hepatocyte lot: BGW
For test [1], the system named is Plasmodium vivax liver stage (primary human hepatocyte culture). How it is done: (§1)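 Dose-response of P. vivax liver stages in primary human hepatocytes, with 8 points (10 uM-[…], v1) or 12 points in duplicate (50 uM-280 pM, v2). Read-out is high-content imaging of schizont net growth area, hypnozoite quantity and hepatic nuclei. EC50 and CC20 (20% nuclei loss) were fitted in CDD Vault from the highest-quality independent experiment; toxic-dose bell-shaped points were masked. '>' marks the highest concentration with less than 50% activity, and ND means a non-sigmoidal curve.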

In test [2] the test system is primary human hepatocytes. Put plainly: CC20 hepatic nuclei (20% reduction); higher = less toxic. How it is done: as §1
Test [3] deals with Plasmodium vivax liver stage (primary human hepatocyte culture). As to the kind of experiment: maximum inhibition of schizont net growth area; higher = more active. How it is done:
as §1

The mark [4] stands for this setting: P. vivax isolate: Pv923, assay mode: Radical Cure, 8-day (treatment from day 5 post-infection).
Where [5] appears, read: P. vivax isolate: Pv728, assay mode: Radical Cure, 8-day (treatment from day 5 post-infection).
Where [6] appears, read: P. vivax isolate: Pv914, assay mode: Prophylactic, 6-day.
[7] abbreviates: P. vivax isolate: Pv668, assay mode: Radical Cure, 8-day (treatment from day 5 post-infection).
Where [8] appears, read: P. vivax isolate: Pv756, assay mode: Radical Cure, 8-day (treatment from day 5 post-infection).
The mark [9] stands for this setting: P. vivax isolate: Pv836, assay mode: Radical Cure, 8-day (treatment from day 5 post-infection).
[10] abbreviates: P. vivax isolate: Pv922, assay mode: Radical Cure, 8-day (treatment from day 5 post-infection).

Consider `Cc1ncc(-c2ccnc(Nc3ccc(S(C)(=O)=O)cc3)n2)n1C(C)C`, for which, in test [1] (setting [4]), the EC50 hypnozoite quantity was more than 50 µM and the “EC50 schizont net growth area” value was more than 50000 nM. This compound gave a CC20 hepatic nuclei in test [2] (setting [4]) of 1.82 µM. In addition, the maximum inhibition in test [3] (setting [4]) is 69.4%.
As to `CC1(CN2CCC(n3c(O)nc4ccccc43)CC2)OCc2ccccc2-n2cccc21` (stereo not given), in test [1] (setting [5]), the EC50 hypnozoite quantity was more than 10 µM and the “EC50 schizont net growth area” value came to 395 nM. In test [2] (setting [5]), this compound came in with a CC20 hepatic nuclei of more than 10 µM. The maximum inhibition in test [3] (setting [5]) was determined as 99.2%.
For `Cc1c(Oc2cnc(C(=O)N3CC(C)(O)C3)cn2)ccc2c1B(O)OC2`, in test [1] (setting [6]), the EC50 hypnozoite quantity is more than 1.11 µM and the “EC50 schizont net growth area” value came out at 1630 nM. In test [2] (setting [6]), this compound registered a CC20 hepatic nuclei of more than 10 µM. In addition, in test [3] (setting [6]), the maximum inhibition came out at 99.7%.
Taken in the same sequence, the figures for `Cc1cc(Nc2ccc(C(F)(F)F)nc2)n2nc(C(C)(F)F)nc2n1` were more than 10 µM, 325 nM, more than 10 µM and 98.8%.
Regarding `CCc1cc(=O)n(C)c(SC(C)C(=O)Nc2ccc(F)cc2)n1` (stereo not given), in test [1] (setting [4]), the EC50 hypnozoite quantity is more than 50 µM and the “EC50 schizont net growth area” value is more than 16700 nM. The CC20 hepatic nuclei in test [2] (setting [4]) is more than 50 µM. Moreover, the maximum inhibition in test [3] (setting [4]) came to 87.6%.
In the case of `CC[C@H]1CN2CCc3cc(OC)c(OC)cc3[C@@H]2C[C@@H]1C[C@H]1NCCc2cc(OC)c(OC)cc21`, in test [1] (setting [7]), the EC50 hypnozoite quantity was more than 50 µM and the “EC50 schizont net growth area” value is 306 nM. This compound also came in with a CC20 hepatic nuclei in test [2] (setting [7]) of 2.42 µM. Moreover, in test [3] (setting [7]), the maximum inhibition worked out at 107%.
As to `CCn1ncc2c(NC3CCOCC3)c(CNC(=O)c3ccnn3C)c(C)nc21`, in test [1] (setting [5]), the EC50 hypnozoite quantity is more than 50 µM and the “EC50 schizont net growth area” value was 26.6 nM. This compound showed a CC20 hepatic nuclei in test [2] (setting [5]) of more than 50 µM. The maximum inhibition in test [3] (setting [5]) is 103%.
With `CN(C)C(=S)NN=C1C(=O)Nc2ccccc21`, in test [1] (setting [4]), the “EC50 schizont net growth area” value is more than 16700 nM. The same compound displayed a CC20 hepatic nuclei in test [2] (setting [4]) of 40.3 µM. In addition, in test [3] (setting [4]), the maximum inhibition amounted to 66.1%.
With `CNC(=S)N/N=C(\C)c1ccccn1`, in test [1] (setting [7]), the EC50 hypnozoite quantity came to 1.92 µM and the “EC50 schizont net growth area” value was determined as 4440 nM. The compound further yielded a CC20 hepatic nuclei in test [2] (setting [7]) of more than 50 µM. Also, in test [3] (setting [7]), the maximum inhibition was 100%.
As to `COc1ccc(C(=O)C(CCC(CNC(C)(C)C)C(=O)c2ccc(OC)cc2)CNC(C)(C)C)cc1` (stereo not given), in test [1] (setting [5]), the EC50 hypnozoite quantity is more than 50 µM and the “EC50 schizont net growth area” value was 16600 nM. This compound had a CC20 hepatic nuclei in test [2] (setting [5]) of 40.8 µM. Also, the maximum inhibition in test [3] (setting [5]) turned out to be 88.7%.
With `COc1ccc(-c2cnc3ccc(N4CCCC4)nn23)cc1OC`, in test [1] (setting [8]), the EC50 hypnozoite quantity is more than 50 µM and the “EC50 schizont net growth area” value is more than 16700 nM. In addition, the CC20 hepatic nuclei in test [2] (setting [8]) was more than 16.7 µM. In addition, the maximum inhibition in test [3] (setting [8]) was found to be 103%.
With `COc1cccc(C=Cc2nc(=O)c3ccccc3o2)c1OC`, in test [1] (setting [6]), the EC50 hypnozoite quantity was more than 10 µM. Further, the CC20 hepatic nuclei in test [2] (setting [6]) is more than 10 µM. Also, the maximum inhibition in test [3] (setting [6]) amounted to 62.6%.
On to `CS(=O)(=O)c1cccc(-c2cnc3[nH]cc(-c4ccc(CCC(=O)O)cc4)c3c2)c1`, for which, in test [1] (setting [4]), the EC50 hypnozoite quantity is more than 50 µM and the “EC50 schizont net growth area” value worked out at 418 nM. The CC20 hepatic nuclei in test [2] (setting [4]) was more than 50 µM. Besides, the maximum inhibition in test [3] (setting [4]) worked out at 99.2%.
Take `Cc1nc(Sc2ncnc3sc4c(c23)CCC4)sc1CC(N)=O`: in test [1] (setting [9]), the EC50 hypnozoite quantity is more than 50 µM and the “EC50 schizont net growth area” value was determined as 2860 nM. This compound also came in with a CC20 hepatic nuclei in test [2] (setting [9]) of more than 50 µM. Moreover, the maximum inhibition in test [3] (setting [9]) came out at 91%.
Turning to `Cc1sc2ncnc(Sc3nnc(N)s3)c2c1C`, in test [1] (setting [10]), the EC50 hypnozoite quantity was more than 50 µM and the “EC50 schizont net growth area” value is more than 5560 nM. Besides, the CC20 hepatic nuclei in test [2] (setting [10]) is more than 16.7 µM. Besides, the maximum inhibition in test [3] (setting [10]) was 86.8%.
As for `O=S1(=O)C=CC2ON=C(c3ccc(Cl)cc3)C21` (stereo not given), in test [1] (setting [7]), the EC50 hypnozoite quantity was more than 50 µM and the “EC50 schizont net growth area” value was more than 1850 nM. This compound also came in with a CC20 hepatic nuclei in test [2] (setting [7]) of 37.6 µM. Further, the maximum inhibition in test [3] (setting [7]) is 103%.
`O=S1(=O)C=CC2ON=C(c3c(Cl)cccc3Cl)C21` (stereo not given) displayed an EC50 hypnozoite quantity in test [1] (setting [7]) of more than 50 µM. The same compound displayed a CC20 hepatic nuclei in test [2] (setting [7]) of 45.7 µM. The maximum inhibition in test [3] (setting [7]) worked out at 94.8%.
